This note sets out measurements from patent publication US20230183237A1, “COMPETITIVE AND NONCOMPETITIVE INHIBITORS OF THE MUSCARINIC ACETYLCHOLINE RECEPTOR M5” (Vanderbilt University, priority 2020, published 2023).

In general, IC50 refers to the midpoint of a concentration-inhibition curve.

The target in the assay is T1, hM5 (Homo sapiens, UniProt P08912).
T1 construct: expressed in transfected cells
T1 sequence (P08912 1-532): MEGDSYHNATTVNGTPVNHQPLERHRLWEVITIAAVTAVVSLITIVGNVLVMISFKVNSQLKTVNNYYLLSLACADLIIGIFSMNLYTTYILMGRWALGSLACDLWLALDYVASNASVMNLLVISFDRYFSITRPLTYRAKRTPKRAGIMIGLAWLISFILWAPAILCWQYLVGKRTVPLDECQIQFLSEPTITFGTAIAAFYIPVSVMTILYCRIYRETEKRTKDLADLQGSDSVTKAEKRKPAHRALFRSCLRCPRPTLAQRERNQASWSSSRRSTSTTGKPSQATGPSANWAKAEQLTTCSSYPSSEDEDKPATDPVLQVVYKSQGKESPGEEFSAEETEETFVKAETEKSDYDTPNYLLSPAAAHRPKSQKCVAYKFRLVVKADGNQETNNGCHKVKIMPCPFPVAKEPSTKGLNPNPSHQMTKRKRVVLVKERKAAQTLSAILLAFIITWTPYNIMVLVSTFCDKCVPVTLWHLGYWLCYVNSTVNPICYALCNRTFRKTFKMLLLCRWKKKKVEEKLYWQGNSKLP
Description: Calcium mobilization concentration-response (IC50 vs EC80 acetylcholine), CHO hM5. It is filed as cell-based. The settings on record: CELL LINE hM5; calcium mobilization, EC80 acetylcholine addition; read-out: IC50. An outline of the steps:
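CHO cells stably expressing hM5, dye-loaded, in HBSS/20 mM HEPES/2.5 mM probenecid, pH 7.4. Compounds were pre-incubated 140 s before an EC80 acetylcholine challenge, with calcium flux read kinetically.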
In general terms: Calcium assays in cells follow changes in intracellular calcium, usually with a dye or a luminescent sensor.
On to `Cc1cc2ncnn2cc1C1CCN(S(=O)(=O)c2ccc3c(c2)C(C)(C)CO3)CC1` [Compound 74, 6-(1-((3,3-dimethyl-2,3-dihydrobenzofuran-5-yl)sulfonyl)piperidin-4-yl)-7-methyl-[1,2,4]triazolo[1,5-a]pyridine], for which the IC50 was more than 10 µM.

Consider `Cc1nc2cc(C)c(C3CCN(S(=O)(=O)c4ccc5c(c4)CCO5)CC3)cn2n1` [Compound 76, 6-(1-((2,3-dihydrobenzofuran-5-yl)sulfonyl)piperidin-4-yl)-2,7-dimethyl-[1,2,4]triazolo[1,5-a]pyridine], for which the 50% inhibitory concentration (IC50) is more than 10 µM.

With `Cc1nc2cc(C)c(C3CCN(S(=O)(=O)c4cc5c(cc4F)OCC5)CC3)cn2n1` [Compound 77, 6-(1-((6-fluoro-2,3-dihydrobenzofuran-5-yl)sulfonyl)piperidin-4-yl)-2,7-dimethyl-[1,2,4]triazolo[1,5-a]pyridine], the IC50 is more than 10 µM.

Consider `Cc1nc2cc(C)c(C3CCN(S(=O)(=O)c4ccc5ncsc5c4)CC3)cn2n1` [Compound 78, 6-((4-(2,7-dimethyl-[1,2,4]triazolo[1,5-a]pyridin-6-yl)piperidin-1-yl)sulfonyl)benzo[d]thiazole], for which the half-maximal inhibitory concentration (IC50) is more than 10 µM.

Take `Cc1nc2cc(C)c(C3CCN(S(=O)(=O)c4cn(C)nc4C)CC3)cn2n1` [Compound 79, 6-(1-((1,3-dimethyl-1H-pyrazol-4-yl)sulfonyl)piperidin-4-yl)-2,7-dimethyl-[1,2,4]triazolo[1,5-a]pyridine]: the IC50 is more than 10 µM.

For `COc1cc2ncnn2cc1C1CCN(S(=O)(=O)c2ccc3c(c2)CCO3)CC1` [Compound 80, 6-(1-((2,3-dihydrobenzofuran-5-yl)sulfonyl)piperidin-4-yl)-7-methoxy-[1,2,4]triazolo[1,5-a]pyridine], the IC50 is more than 10 µM.

`COc1cc2ncnn2cc1C1CCN(S(=O)(=O)c2cc3c(cc2F)OCC3)CC1` [Compound 81, 6-(1-((6-fluoro-2,3-dihydrobenzofuran-5-yl)sulfonyl)piperidin-4-yl)-7-methoxy-[1,2,4]triazolo[1,5-a]pyridine]: the IC50 was more than 10 µM.

As to `COc1cc2ncnn2cc1C1CCN(S(=O)(=O)c2ccc3ncsc3c2)CC1` [Compound 82, 6-((4-(7-methoxy-[1,2,4]triazolo[1,5-a]pyridin-6-yl)piperidin-1-yl)sulfonyl)benzo[d]thiazole], the IC50 is more than 10 µM.

As to `COc1cc2ncnn2cc1C1CCN(S(=O)(=O)c2cn(C)nc2C)CC1` [Compound 83, 6-(1-((1,3-dimethyl-1H-pyrazol-4-yl)sulfonyl)piperidin-4-yl)-7-methoxy-[1,2,4]triazolo[1,5-a]pyridine], the IC50 is more than 10 µM.

With `Cc1cc2ncnn2cc1C1=CCN(S(=O)(=O)c2cc3c(cc2C)OCC3C)CC1` (centres unmarked) [Compound 84, 6-(1-((3,6-dimethyl-2,3-dihydrobenzofuran-5-yl)sulfonyl)-1,2,3,6-tetrahydropyridin-4-yl)-7-methyl-[1,2,4]triazolo[1,5-a]pyridine], the IC50 is 0.185 µM.

For the compound `Cc1cc2c(cc1S(=O)(=O)N1CCC(c3ccc4ncnn4c3C)CC1)C(C)CO2` (centres unmarked) [Compound 85, 6-(1-((3,6-dimethyl-2,3-dihydrobenzofuran-5-yl)sulfonyl)piperidin-4-yl)-5-methyl-[1,2,4]triazolo[1,5-a]pyridine], the 50% inhibitory concentration (IC50) turned out to be 6.3 µM.

As to `Cc1cc2c(cc1S(=O)(=O)N1CCC(c3cc(C)c4ncnn4c3)CC1)C(C)CO2` (centres unmarked) [Compound 86, 6-(1-((3,6-dimethyl-2,3-dihydrobenzofuran-5-yl)sulfonyl)piperidin-4-yl)-8-methyl-[1,2,4]triazolo[1,5-a]pyridine], the IC50 was determined as 9.2 µM.

As to `Cc1nc2cc(C)c(C3CCN(S(=O)(=O)c4cc5c(cc4C)OCC5C)CC3)cn2n1` (centres unmarked) [Compound 87], the 50% inhibitory concentration (IC50) turned out to be 1.3 µM.

`COc1cc2ncnn2cc1C1CCN(S(=O)(=O)c2cc3c(cc2C)OCC3C)CC1` (centres unmarked) [Compound 88, 6-(1-((3,6-dimethyl-2,3-dihydrobenzofuran-5-yl)sulfonyl)piperidin-4-yl)-7-methoxy-[1,2,4]triazolo[1,5-a]pyridine]: the IC50 amounted to 0.804 µM.
